Source: patent US6846637B1, “Fas peptides and antibodies for modulating apoptosis” (IMED AB, priority 1998, dated 2005)

Experiments:
[1] = system: antibodies in human sera of healthy blood donors; assay: ELISA reactivity of human serum to Fas peptides; type: binding; details: for Reactivity to Fas peptides in ELISA, Human serum: O.D. 490 nm classes; for reactivity with human sera: sera of 30 healthy blood donors, in words
Description: The derived amino acid sequence (a.a.1-179) of the Fas protein (Itoh et al., 1991) was used for simultaneous multiple solid-phase peptide synthesis (Houghten et al, 1985) of 20 amino acid long peptides (with a 10-residue overlap).

[2] = system: Jurkat leukemia T cells; assay: TUNEL assay of apoptosis of Jurkat cells on immobilized anti-Fas peptide antibodies; type: cell-based, human; details: immobilized antibody, 48 h, TUNEL/FACS; control well 18%
Description: The antibody-concentrations were anti-Fp5 (10 μg/ml), anti-Fp11 (10 μg/ml) and anti-Fpl7 (40 μg/ml). Cells were collected after 48 h incubation, and the fragmented DNA of apoptotic cells was assessed by Apoptosis Detection System, Fluorescein (Promega, Madison, Wis.) based on TdT-mediated dUTP Nick-End Labeling (TUNEL) assay and FACS analysis (CellQuest software, Becton Dickinson) according to manufacturer's instructions. For apoptosis inhibition experiments, Jurkat cell culture medium was supplemented with 200 ng/ml of recombinant Fas-Fc chimera (R&D Systems Europe Ltd, Abingdon, UK). Inhibition of CH-11-mediated apoptosis was performed as described in Fadeel et al., 1997. Data are presented as the mean value of four independent experiments, and the standard error of mean is indicated by the error bars.
Ability to mediate apoptosis and inhibition of proliferation was determined using antibodies immobilized to plastic surface.

[3] = system: immunoglobulin preparations derived from pooled human serum (Gammagard); assay: ELISA reactivity of immunoglobulin preparations (Gammagard) to Fas peptides; type: binding; details: O.D. 490 nm classes
Description: Similar experiments were performed with commercially available immunoglobulin preparations derived from pooled human serum enriched by immunosorbence for immunoglobulin fractions (Gammagard-Baxter, Hyland, Glendale, Calif. USA).

[4] = molecular target: Fas peptide Fp17 (Trp160-Val179) (human); assay: peptide ELISA; legend: + = <0.5 O.D. 490 nm
[5] = molecular target: Fas peptide Fp5 (Gly40-Val59) (human); assay: peptide ELISA; legend: + = <0.5 O.D. 490 nm
[6] = molecular target: Fas peptide Fp11 (Glu100-Cys119) (human); assay: peptide ELISA; legend: +++ > 1.0 O.D.
Chain of Fas peptide Fp11 (Glu100-Cys119) (human) (peptide, as listed by the source): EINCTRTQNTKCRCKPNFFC

[7] = system: PHA-stimulated T cell blasts; assay: Proliferation of PHA-stimulated T-cell blasts (Alamar Blue); type: cell-based, human; details: anti-CD3 alone
Description: PBMC were stimulated with phytohemagglutinin (PHA) ([…]) (Pharmacia Biotech, Sweden) for 48 hours. […] After 48 hours incubation, the proliferation was assessed by Alamar Blue Assay (Biosource International, USA.) and the results were expressed as percent difference in reduction of (fluorometric/colorometric) REDOX indicator between antibody coated and control (without antibodies) wells according to manufacturer's instructions (AMS Biotechnology AB, Sweden).

Substance | Reactivity to Fas peptides in ELISA, Human serum [1] | reactivity with human sera [1] | Reactivity to Fas peptides in ELISA, Immunoglobulin preparations (Gammagard) [3] | also measured
GQFCHKPCPPGERKARDCTV [Fp5] | ++ (++ = <1.0 O.D.) | reactive | + (+ = <0.5 O.D. 490 nm) | apoptosis induced in Jurkat leukemia cells [2]: 25%
HFSSKCRRCRLCDEGHGLEV [Fp9] | – | – | ++ (++ = <1.0 O.D.) | –
Immunoglobulin preparations (Gammagard) (antibody) | – | – | – | O.D. 490 nm [4]: < 0.5 od; O.D. 490 nm [5]: < 0.5 od; O.D. 490 nm [6]: > 1 od
KCRCKPNFFCNSTVCEHCDP [Fp12] | ++ (++ = <1.0 O.D.) | – | ++ (++ = <1.0 O.D.) | –
KEEGSRSNLGWLCLLLLPIP [Fp16] | – | low or no reactivity | + (+ = <0.5 O.D. 490 nm) | –
LIVWVKRKEVQKTCRKHRKE [Fp18] | – | – | +++ (+++ > 1.0 O.D.) | –
QEGKEYTDKAHFSSKCRRCR [Fp8] | – | – | +++ (+++ > 1.0 O.D.) | –
WLCLLLLPIPLIVWVKRKEV [Fp17] | +++ (+++ > 1.0 O.D.) | reactive | + (+ = <0.5 O.D. 490 nm) | serum titers against peptide ([1]; 30 healthy donors, comparison of Fp5, Fp11, Fp17): lowest mean titers
anti-CD3: purified anti-CD3 monoclonal antibody (OKT-3, 10 μg/ml) | – | – | – | reduction of proliferation [7]: 12%
